Results from US10233201B2, “Class of HDAC inhibitors expands the renal progenitor cells population and improves the rate of recovery from acute kidney injury” (University of Pittsburgh—Of the Commonwealth System of …, priority 2012, dated 2019).

Tests used:
[1] = tested on: HDAC activity in DSI9 mouse erythroleukemia cells; conditions: 5 mM; cited from earlier work
histone H4 acetylation = assay: Histone H4 hyperacetylation Western blot in embryos; assay type: in vivo, zebrafish; conditions: 24 hpf embryos treated 6 hours; 3 μM PTBA, 25 μM PBA, 200 nM TSA
Procedure: It was next determined whether the HDACi function of PTBA was quantifiable in vivo. 24 hpf embryos were treated with 3 μM PTBA, 25 μM PBA, or 200 nM TSA for 6 hours. Protein extracts were prepared and immunoblotted with an anti-hyperacetylated histone H4 antibody. […] Furthermore, increasing the compound concentration caused a corresponding increase in hyperacetylation (FIG. 21).
SDS-PAGE and Western blotting were performed as described previously with some modifications (Noel, E. S. et al. Organ-specific requirements for Hdac1 in liver and pancreas formation. Dev Biol 322, 237-250, (2008)). Proteins were separated on 18% SDS-PAGE gels. Membranes were incubated at 4° C. overnight with 1:1000 anti-hyperacetylated histone H4 antibody (06-946, Millipore) or 1:1000 anti-α-tubulin antibody (Sigma-Aldrich) in PBT containing 5% nonfat milk.

zebrafish larvae = assay: Phenotypic scoring of edema and survival in zebrafish larvae at 72 hpf; assay type: in vivo; conditions: 25 μM PBA, 200 nM TSA
Excerpt: (§1) PTBA was synthesized as described below. Hydroxyurea and aphidicolin were obtained from Sigma-Aldrich.
Wild type: no visible edema or developmental delay.

[2] = tested on: renal progenitor cells (lhx1a expression); assay: In situ hybridization for lhx1a expression in 10-somite embryos (renal progenitor cell expansion); assay type: in vivo; as to lhx1a expansion class, 200 nM: key: effective (+); partially effective (+/−); ineffective (−); Analogs that killed all embryos at a given concentration before reaching 10 somites are listed as XX; as to lhx1a expansion class, 400 nM: key: effective (+); partially effective (+/−); ineffective (−); Analogs that killed all embryos at a given concentration before reaching 10 somites are listed as XX; as to lhx1a expansion class, 800 nM: key: effective (+); partially effective (+/−); ineffective (−); Analogs that killed all embryos at a given concentration before reaching 10 somites are listed as XX
Procedure: as §1
(§2) In situ hybridization and immunocytochemistry: In situ hybridization was performed as previously described with some modifications. 142 Hybridization temperature was 65° C. Embryos were blocked in 2% blocking reagent (Roche) with 5% sheep serum in MAB (100 mM maleic acid and 150 mM NaCl [pH 7.5]). Whole-mount immunocytochemistry with 1:25 mouse anti-α6F antibody (Developmental Studies Hybridoma Bank) and 1:100 Cy3 secondary antibody (Jackson ImmunoResearch) was performed as described previously. 108 Embryos were embedded in JB-4 for sectioning per the manufacturer's instructions (Polysciences), sectioned at 5 μm, and mounted with Cytoseal 60 (Richard-Allan Scientific).
The remaining PTBA analogs were synthesized.
In situ hybridization for lhx1a was performed as described above. […] Compounds were classified as effective, partially-effective or ineffective based on comparison to the effects of PTBA at a given concentration.
Testing of the compounds is on-going, but for those tested, Table 3 provides first pass EC50s based upon colormetric in situ hybridizations for the Lhx1a mRNA expression levels. After the procedure is run, in situ hybridization is done for the lhx1 mRNA expression and the number of embryos that show an expanded kidney field is manually counted to establish the percent of embryos showing expansion. Then the EC50 is determined by plotting the percent expansion in Excel, graphing the results and using the trendline function to determine the 50 percent point. […] For UPHD-00186, the 4 values for EC50 are shown in Table 3 for the corresponding expression in zebrafish embryos employed an artificial intelligence-based image analysis method termed cognition network technology (CNT) for n=4.

[3] = tested on: human HDACs (HeLa cell nuclear extract); assay: Fluorescence histone deacetylation assay with HeLa cell nuclear extract; assay type: biochemical; conditions: 5 mM compound, 10 μg HeLa extract
Procedure: To evaluate this in vitro, the deacetylation of a fluorescent peptide substrate was measured in the presence of human HDACs.
In vitro HDAC activity assays were performed using a fluorescence HDAC assay kit (Active Motif) according to the manufacturer's instructions. For maintaining compound solubility at 5 mM, the final DMSO concentration in all assay wells was increased to 5%. Fluorescence was detected using an M5 Plate Reader ([…])

[4] = tested on: myod1 (somites), fli1a (vasculature), ntla (notochord); assay: In situ hybridization for mesodermal markers myod1, fli1a, ntla in 10-somite embryos; assay type: in vivo, zebrafish; conditions: 25 μM PBA
Procedure: as §1, §2

[5] = tested on: CD1 mice, folic acid-induced injury; assay: Folic acid-induced AKI; assay type: in vivo, mouse; conditions: daily IP 50 mg/ml in 30% PEG300 from 24 hrs after folic acid; after 15 days
Procedure: FIG. 41 are photomicrographs showing the results of an AKI model using folic acid-induced injury. Folic acid is administered to CD1 mice (n=6/group) intraperitoneally (IP) at 250 mg/ml in 0.3M NaHCO3. Compound UPHD-00022 was injected daily IP at […] in 30% PEG300 vehicle starting 24 hrs after folic acid treatment. Kidney tissue was stained using Trichrome and Sirus Red stained after 15 days. Blue in trichrome and the red in sirus red indicates fibrotic (scar) tissue.

[6] = tested on: mouse models of unilateral ureteral obstruction (UUO); assay: Unilateral ureteral obstruction (UUO); assay type: in vivo; conditions: IP days 0 to 6, kidneys harvested at day 7
Excerpt: The model of unilateral ureteral obstruction generates progressive renal fibrosis. Surgically created UUO can be experimentally manipulated with respect to timing, severity, and duration, while reversal of the obstruction permits the study of recovery.
FIG. 47 represents the results of the testing of compounds UPHD-00022, UPHD-00025 (PTBA), UPHD-00029, UPHD-00036, and UPHD-00186, for their efficacy in mouse models of unilateral ureteral obstruction (UUO) as follows: in the UUO models, one ureter was ligated for 7 days and compounds were delivered via IP for days 0 to 6. At day 7 kidneys were harvested for Sirius red staining. […] Therefore, in the models tested, the only compound proven to be effective in all models and with significant delayed onset of treatment is UPHD-186.

[7] = lhx1a in situ hybridization, includes repeats* and recounts

## O=C(O)CCCc1ccccc1 [PBA, 4-phenylbutanoic acid]
[1]
  HDAC activity, % of the control value: 19%
Histone H4 acetylation
  histone H4 hyperacetylation: hyperacetylation was observed
Zebrafish larvae; n=90
  death (lethality) by 72 hpf: 8%
Zebrafish larvae; treated from 2 hpf, 3 μM PTBA
  larvae with edemic phenotype / pericardial edema at 72 hpf: 23%
[2]; 10-somite embryos
  concentration producing lhx1a expansion consistent with 3 μM PTBA: 25 µM
[3]
  HDAC activity, % of the control value: 30%
[4]; 3 μM PTBA (slightly decreased), 200 nM TSA
  embryos with decreased myod1 expression: 57%
[4]; 3 μM PTBA
  embryos with increased ntla expression: 87%
[4]; 200 nM TSA
  embryos with decreased fli1a expression: 78%

## COC(=O)CCCSc1ccc(OC)cc1 [UPHD-00022, methyl 4-[(4-methoxyphenyl)sulfanyl]butanoate]
[5]
  renal fibrosis (Trichrome and Sirus Red): a reduction in fibrosis is seen
[2]; 200 nM from 2 hpf
  lhx1a expansion class, 200 nM: −
[2]; 400 nM from 2 hpf
  lhx1a expansion class, 400 nM: +/−
[2]; 800 nM from 2 hpf
  lhx1a expansion class, 800 nM: +
[2]; Danio rerio, 400 nM, read-out: embryos with expanded lhx1a expression (% expansion)
  responders at 0.4 µM: 29%
[2]; Danio rerio, 800 nM, read-out: embryos with expanded lhx1a expression (% expansion)
  responders at 0.8 µM: 57%
[2]; [7]
  Expansion of Cells, 800 nM: 57%
  Expansion of Cells, 1.5 μM: 91%
  Expansion of Cells, 3 μM: 100%
[6]
  fibrosis (Sirius red) and expression of fibrosis markers in UUO kidney: reduce both fibrosis and expression of fibrosis markers
